Results on 23 compounds are retold here after PubChem BioAssay (NCI).

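48-hour exposure; five concentrations; linearly interpolated endpoints. GI50 = concentration required for 50% inhibition of growth. TGI denotes the concentration required for complete inhibition of growth.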

In one assay the test system is BT-549 breast. The experiment in a line: DTP human tumour cell line panel, 48 h.
Regarding `CO[C@H]1/C=C(/C)CCC[C@H](C)[C@H](O)[C@@H](C)C(=O)C(C)(C)[C@@H](O)CC(=O)O[C@@H]1/C(C)=C/c1csc(C)n1`, the GI50 was 0.0498 µM and the TGI is above 100 µM.
Compound `CCC1(CC)C(=O)NN(C(=O)c2ccccc2)C1=O` returned a total growth inhibition concentration (TGI) above 100 µM.
In turn, `CC(=O)Nc1nc(C#N)[nH]c1C#N` gave a TGI above 100 µM.
The same measure, in the same setting: the figure for `CS(=O)c1ncc2c(n1)-c1ccccc1OC2` (stereo unspecified) is above 100 µM.
Regarding `CN(C)c1ccc(C(=N/N=C2\C(=O)Nc3ccccc32)c2ccc(N(C)C)cc2)cc1`, the TGI worked out at 38.6 µM.
The same measure, in the same setting: the figure for `COc1ccc(-c2nc(SCC(=O)N/N=C/c3ccc(N(C)C)cc3)[nH]c2-c2ccc(OC)cc2)cc1` is above 100 µM; for `CC1=C[C@@H]2Cc3nc4cc(Cl)ccc4c(N)c3[C@H](C1)C2` it is 31.7 µM.
Still for that read-out and setting: the figure for `c1c[nH]c(-c2ccc(-c3ccc[nH]3)c3nsnc23)c1` is above 100 µM; for `N#Cc1c(-c2ccccc2)/c(=C\Nc2ccc(F)cc2)c(=O)n2c1nc1ccccc12` it is above 100 µM.
Compound `CCN(CC)CCn1c(=O)c2cccnc2n2c3c(=O)n(C)c(=O)n(C)c3nc12` yielded a TGI above 100 µM.
The same measure, in the same setting: the same measure for `CCOC(=O)C1=C(C)C2C=C(c3cccs3)CC(c3ccc(Cl)cc3)=C2OC1=O` (stereo unspecified): above 100 µM.
The compound `COc1ccc2c(c1)OCC1Cc3ccccc3OC21` (stereo unspecified) displayed a TGI above 100 µM.
Compound `Cc1cc2c3c(nc4ccccc42)C(=O)c2ccccc2-c3n1` displayed a TGI of 48.4 µM.
The same measure, in the same setting: the same measure for `CCOC(=O)c1nc2c(nc1C(=O)OCC)C(=O)c1ccccc1C2=O`: 2.76 µM; for `CCOC(=O)c1c(C)nc2c3ccccc3c(C#N)c(C)n12`: above 100 µM.
Same read-out and setting: the figure for `Cc1ccc(C(=C2Sc3ccccc3S2)C(=C2Sc3ccccc3S2)c2ccc(C)s2)s1` is above 100 µM.
On to `CCCCC(C(=O)NCCNC(=O)CCC(=O)N(C)O)C(=O)NCCNC(=O)CCC(=O)N(C)O`, for which the TGI was above 100 µM.
Still for that read-out and setting: the figure for `C=CCSc1nnc2cc(CN3CCCC3)c(-c3ccc(Cl)cc3)nn12` is 42.4 µM; for `COc1cccc2c1OC1(C=C2)Oc2ccccc2C(=O)N1C` (stereo unspecified) it is 88.2 µM.
Same read-out and setting: the same measure for `CCOC(=O)c1cn2c(nc1=O)N[C@H]1CCCC[C@@H]12`: above 100 µM; for `COP(=O)(/C=C/c1cc(C(=O)OCc2ccccc2)n(S(=O)(=O)c2ccccc2)c1)OC`: above 100 µM; for `COc1ccc(NC(=O)CC(=O)N2N=C(N3c4ccccc4Sc4ccccc43)CC2c2ccccc2)cc1` (stereo unspecified): above 100 µM.
Take `O=C(O)c1ccccc1CC1Cc2ccccc2C1=O` (stereo unspecified): the TGI is above 100 µM.

Another assay deals with IGROV1 ovarian. The assay is described as follows: DTP human tumour cell line panel, 48 h.
On to `CO[C@H]1/C=C(/C)CCC[C@H](C)[C@H](O)[C@@H](C)C(=O)C(C)(C)[C@@H](O)CC(=O)O[C@@H]1/C(C)=C/c1csc(C)n1`, for which the GI50 was 0.0241 µM and the TGI is above 100 µM.
Regarding `CCC1(CC)C(=O)NN(C(=O)c2ccccc2)C1=O`, the TGI is above 100 µM.
Compound `CC(=O)Nc1nc(C#N)[nH]c1C#N` showed a TGI above 100 µM.
Still for that read-out and setting: the same measure for `CS(=O)c1ncc2c(n1)-c1ccccc1OC2` (stereo unspecified): above 100 µM; for `CN(C)c1ccc(C(=N/N=C2\C(=O)Nc3ccccc32)c2ccc(N(C)C)cc2)cc1`: 9.07 µM; for `COc1ccc(-c2nc(SCC(=O)N/N=C/c3ccc(N(C)C)cc3)[nH]c2-c2ccc(OC)cc2)cc1`: above 100 µM.
On to `CC1=C[C@@H]2Cc3nc4cc(Cl)ccc4c(N)c3[C@H](C1)C2`, for which the TGI was determined as 8.14 µM.
The compound `c1c[nH]c(-c2ccc(-c3ccc[nH]3)c3nsnc23)c1` gave a TGI above 100 µM.
Still for that read-out and setting: the figure for `N#Cc1c(-c2ccccc2)/c(=C\Nc2ccc(F)cc2)c(=O)n2c1nc1ccccc12` is 87.3 µM; for `CCN(CC)CCn1c(=O)c2cccnc2n2c3c(=O)n(C)c(=O)n(C)c3nc12` it is above 100 µM.
The same measure, in the same setting: the same measure for `CCOC(=O)C1=C(C)C2C=C(c3cccs3)CC(c3ccc(Cl)cc3)=C2OC1=O` (stereo unspecified): above 100 µM; for `COc1ccc2c(c1)OCC1Cc3ccccc3OC21` (stereo unspecified): above 100 µM.
On the same count and under the same terms, the figure for `Cc1cc2c3c(nc4ccccc42)C(=O)c2ccccc2-c3n1` is above 100 µM.
In turn, `CCOC(=O)c1nc2c(nc1C(=O)OCC)C(=O)c1ccccc1C2=O` showed a TGI of 23.8 µM.
The same measure, in the same setting: the same measure for `CCOC(=O)c1c(C)nc2c3ccccc3c(C#N)c(C)n12`: above 100 µM; for `Cc1ccc(C(=C2Sc3ccccc3S2)C(=C2Sc3ccccc3S2)c2ccc(C)s2)s1`: above 100 µM; for `CCCCC(C(=O)NCCNC(=O)CCC(=O)N(C)O)C(=O)NCCNC(=O)CCC(=O)N(C)O`: above 100 µM.
In turn, `C=CCSc1nnc2cc(CN3CCCC3)c(-c3ccc(Cl)cc3)nn12` had a TGI of 44.3 µM.
Same read-out and setting: the same measure for `COc1cccc2c1OC1(C=C2)Oc2ccccc2C(=O)N1C` (stereo unspecified): above 100 µM.
Same read-out and setting: the same measure for `CCOC(=O)c1cn2c(nc1=O)N[C@H]1CCCC[C@@H]12`: above 100 µM; for `COP(=O)(/C=C/c1cc(C(=O)OCc2ccccc2)n(S(=O)(=O)c2ccccc2)c1)OC`: above 100 µM; for `COc1ccc(NC(=O)CC(=O)N2N=C(N3c4ccccc4Sc4ccccc43)CC2c2ccccc2)cc1` (stereo unspecified): above 100 µM.
Same read-out and setting: the same measure for `O=C(O)c1ccccc1CC1Cc2ccccc2C1=O` (stereo unspecified): above 100 µM.

Another assay concerns KM12 colon. The assay is described as follows: DTP human tumour cell line panel, 48 h.
`CO[C@H]1/C=C(/C)CCC[C@H](C)[C@H](O)[C@@H](C)C(=O)C(C)(C)[C@@H](O)CC(=O)O[C@@H]1/C(C)=C/c1csc(C)n1`: the 50% growth inhibitory concentration (GI50) is below 0.0129 µM and the TGI is above 100 µM.
The compound `CCC1(CC)C(=O)NN(C(=O)c2ccccc2)C1=O` displayed a TGI above 100 µM.
For `CC(=O)Nc1nc(C#N)[nH]c1C#N`, the TGI was above 100 µM.
The same measure, in the same setting: the figure for `CS(=O)c1ncc2c(n1)-c1ccccc1OC2` (stereo unspecified) is above 100 µM; for `CN(C)c1ccc(C(=N/N=C2\C(=O)Nc3ccccc32)c2ccc(N(C)C)cc2)cc1` it is 33.1 µM; for `COc1ccc(-c2nc(SCC(=O)N/N=C/c3ccc(N(C)C)cc3)[nH]c2-c2ccc(OC)cc2)cc1` it is above 100 µM.
On the same count and under the same terms, the figure for `CC1=C[C@@H]2Cc3nc4cc(Cl)ccc4c(N)c3[C@H](C1)C2` is 21.6 µM; for `c1c[nH]c(-c2ccc(-c3ccc[nH]3)c3nsnc23)c1` it is above 100 µM; for `N#Cc1c(-c2ccccc2)/c(=C\Nc2ccc(F)cc2)c(=O)n2c1nc1ccccc12` it is above 100 µM.
Same read-out and setting: the figure for `CCN(CC)CCn1c(=O)c2cccnc2n2c3c(=O)n(C)c(=O)n(C)c3nc12` is above 100 µM; for `CCOC(=O)C1=C(C)C2C=C(c3cccs3)CC(c3ccc(Cl)cc3)=C2OC1=O` (stereo unspecified) it is 39.8 µM; for `COc1ccc2c(c1)OCC1Cc3ccccc3OC21` (stereo unspecified) it is above 100 µM.
Compound `Cc1cc2c3c(nc4ccccc42)C(=O)c2ccccc2-c3n1` gave a TGI of 14.5 µM.
`CCOC(=O)c1nc2c(nc1C(=O)OCC)C(=O)c1ccccc1C2=O` came in with a total growth inhibition concentration (TGI) of 14.7 µM.
The same measure, in the same setting: the figure for `CCOC(=O)c1c(C)nc2c3ccccc3c(C#N)c(C)n12` is above 100 µM; for `Cc1ccc(C(=C2Sc3ccccc3S2)C(=C2Sc3ccccc3S2)c2ccc(C)s2)s1` it is above 100 µM.
The same measure, in the same setting: the figure for `CCCCC(C(=O)NCCNC(=O)CCC(=O)N(C)O)C(=O)NCCNC(=O)CCC(=O)N(C)O` is above 100 µM; for `C=CCSc1nnc2cc(CN3CCCC3)c(-c3ccc(Cl)cc3)nn12` it is 64.7 µM.
With `COc1cccc2c1OC1(C=C2)Oc2ccccc2C(=O)N1C` (stereo unspecified), the TGI is above 100 µM.
The same measure, in the same setting: the same measure for `CCOC(=O)c1cn2c(nc1=O)N[C@H]1CCCC[C@@H]12`: above 100 µM; for `COP(=O)(/C=C/c1cc(C(=O)OCc2ccccc2)n(S(=O)(=O)c2ccccc2)c1)OC`: above 100 µM.
For the compound `COc1ccc(NC(=O)CC(=O)N2N=C(N3c4ccccc4Sc4ccccc43)CC2c2ccccc2)cc1` (stereo unspecified), the TGI is above 100 µM.
The same measure, in the same setting: the same measure for `O=C(O)c1ccccc1CC1Cc2ccccc2C1=O` (stereo unspecified): above 100 µM.

Another assay relates to MDA-MB-231 breast. The assay is described as follows: DTP human tumour cell line panel, 48 h.
For `CO[C@H]1/C=C(/C)CCC[C@H](C)[C@H](O)[C@@H](C)C(=O)C(C)(C)[C@@H](O)CC(=O)O[C@@H]1/C(C)=C/c1csc(C)n1`, the GI50 was 0.0428 µM and the TGI is above 100 µM.
Regarding `CCC1(CC)C(=O)NN(C(=O)c2ccccc2)C1=O`, the TGI was above 100 µM.
Still for that read-out and setting: the figure for `CC(=O)Nc1nc(C#N)[nH]c1C#N` is above 100 µM.
Same read-out and setting: the same measure for `CS(=O)c1ncc2c(n1)-c1ccccc1OC2` (stereo unspecified): above 100 µM.
The same measure, in the same setting: the figure for `CN(C)c1ccc(C(=N/N=C2\C(=O)Nc3ccccc32)c2ccc(N(C)C)cc2)cc1` is 13.1 µM; for `COc1ccc(-c2nc(SCC(=O)N/N=C/c3ccc(N(C)C)cc3)[nH]c2-c2ccc(OC)cc2)cc1` it is above 100 µM; for `CC1=C[C@@H]2Cc3nc4cc(Cl)ccc4c(N)c3[C@H](C1)C2` it is 28.7 µM.
In the case of `c1c[nH]c(-c2ccc(-c3ccc[nH]3)c3nsnc23)c1`, the TGI was above 84.8 µM.
The same measure, in the same setting: the same measure for `N#Cc1c(-c2ccccc2)/c(=C\Nc2ccc(F)cc2)c(=O)n2c1nc1ccccc12`: above 100 µM; for `CCN(CC)CCn1c(=O)c2cccnc2n2c3c(=O)n(C)c(=O)n(C)c3nc12`: above 100 µM.
Still for that read-out and setting: the figure for `CCOC(=O)C1=C(C)C2C=C(c3cccs3)CC(c3ccc(Cl)cc3)=C2OC1=O` (stereo unspecified) is above 100 µM.
In the case of `COc1ccc2c(c1)OCC1Cc3ccccc3OC21` (stereo unspecified), the TGI was above 100 µM.
On the same count and under the same terms, the figure for `Cc1cc2c3c(nc4ccccc42)C(=O)c2ccccc2-c3n1` is 78.1 µM; for `CCOC(=O)c1nc2c(nc1C(=O)OCC)C(=O)c1ccccc1C2=O` it is 8.41 µM.
On the same count and under the same terms, the same measure for `CCOC(=O)c1c(C)nc2c3ccccc3c(C#N)c(C)n12`: 46.5 µM; for `Cc1ccc(C(=C2Sc3ccccc3S2)C(=C2Sc3ccccc3S2)c2ccc(C)s2)s1`: above 100 µM; for `CCCCC(C(=O)NCCNC(=O)CCC(=O)N(C)O)C(=O)NCCNC(=O)CCC(=O)N(C)O`: above 100 µM.
The same measure, in the same setting: the figure for `C=CCSc1nnc2cc(CN3CCCC3)c(-c3ccc(Cl)cc3)nn12` is 35.6 µM.
For the compound `COc1cccc2c1OC1(C=C2)Oc2ccccc2C(=O)N1C` (stereo unspecified), the TGI was above 100 µM.
The same measure, in the same setting: the figure for `CCOC(=O)c1cn2c(nc1=O)N[C@H]1CCCC[C@@H]12` is above 100 µM.
On the same count and under the same terms, the figure for `COP(=O)(/C=C/c1cc(C(=O)OCc2ccccc2)n(S(=O)(=O)c2ccccc2)c1)OC` is above 100 µM; for `COc1ccc(NC(=O)CC(=O)N2N=C(N3c4ccccc4Sc4ccccc43)CC2c2ccccc2)cc1` (stereo unspecified) it is above 100 µM.
Still for that read-out and setting: the same measure for `O=C(O)c1ccccc1CC1Cc2ccccc2C1=O` (stereo unspecified): above 100 µM.
